Measurements: PubChem BioAssay (NCI)
Where “and” joins values, the source holds several entries; their conditions need not be identical. Identical values can stand only once.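 How tested: cells in 96-well plates exposed to compound for 48 hours at five concentrations. GI50 = concentration required for 50% inhibition of growth. TGI denotes the concentration required for complete inhibition of growth.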

Experiments:
Experiment in all cases: NCI-60 cell line screen, 48 h
[1] = test system: TK-10 renal
[2] = test system: RPMI-8226 leukemia
[3] = test system: IGROV1 ovarian
[4] = test system: LOX IMVI melanoma
[5] = test system: MDA-MB-231 breast
[6] = test system: HT29 colon
[7] = test system: A498 renal
[8] = test system: A549 NSCLC
[9] = test system: MDA-MB-435
[10] = test system: RXF 393 renal

Compound	GI50 [1]	TGI [1]	GI50 [2]	TGI [2]	GI50 [3]	TGI [3]	GI50 [4]	TGI [4]	GI50 [5]	TGI [5]	GI50 [6]	TGI [6]	GI50 [7]	TGI [7]	GI50 [8]	TGI [8]	GI50 [9]	TGI [9]	GI50 [10]	TGI [10]
C=C1C(=O)O[C@H]2[C@H]1CC/C(COC(=O)NCc1c[nH]c3ccccc13)=C\CC[C@@]1(C)O[C@@H]21	2.55 µM	5.65 µM	1790 nM	6.14 µM	1960 nM	11.6 µM	1400 nM	2.87 µM	1910 nM	4.98 µM	3.1 µM	9.69 µM	11.1 µM	23.2 µM	12.5 µM	28.6 µM	2570 nM	11.8 µM	1240 nM	2.72 µM
CCN(CC)CCCC(C)Nc1ccnc2cc(Cl)ccc12 (stereo not drawn)	42.1 µM	> 100 µM		69.6 µM	> 100000 nM	> 100 µM	18400 nM	48.8 µM and 45 µM	> 100000 nM	> 100 µM and 73.4 µM	45.7 µM	> 100 µM	> 100 µM	> 100 µM	64.9 µM	> 100 µM	20300 nM	43.3 µM and 37.3 µM	7950 nM	> 100 µM and 26.2 µM
COc1cc2c3cc1Oc1c(OC)c(OC)cc4c1C(=NCC4)Cc1ccc(cc1)Oc1cc(ccc1O)C[C@H]3N(C)CC2		43.1 µM		47.5 µM		94.4 µM		25.1 µM		27.8 µM		23.3 µM		36.7 µM		> 100 µM		37.3 µM		24.9 µM
CN(C)CCCN(CCC1CCCCC1)CCC1CCCCC1	2.5 µM	8.92 µM	424 nM	3.86 µM	1910 nM	4.65 µM	1470 nM	2.91 µM	1620 nM	3.97 µM	0.73 µM	6.81 µM	2.87 µM	9.61 µM	2.69 µM	8.5 µM	1350 nM	3.03 µM	1470 nM	4.24 µM
Cc1ccc2oc(=O)cc(/C(=C3/C=CC=N3)c3ccc[nH]3)c2c1	0.47 µM	4.87 µM	297 nM	1.16 µM	468 nM	6.5 µM	343 nM	1.41 µM	802 nM	3.07 µM	0.349 µM	1.42 µM	0.269 µM	0.92 µM	0.59 µM	10.9 µM	211 nM	0.544 µM	256 nM	0.748 µM
O=C1C(=C(C(F)(F)Cl)C(F)(F)Cl)C2CCC1C2 (stereo not drawn)		4.29 µM		> 3.16 µM		3.62 µM		2.89 µM		3.07 µM		5.57 µM		> 10 µM		> 10 µM		3.81 µM		3.07 µM
Cn1c(=O)c(Oc2ccc(F)cc2F)cc2cnc(NC(C)(C)CO)nc21	> 25 µM	> 25 µM	> 25000 nM	> 25 µM	> 25000 nM	> 25 µM	> 25000 nM	> 25 µM	> 25000 nM	> 25 µM	> 25 µM	> 25 µM	> 15.9 µM	> 25 µM	> 25 µM	> 25 µM	> 25000 nM	> 25 µM	> 25000 nM	> 25 µM
COC(=O)c1ccc2c(c1)C(=O)c1c-2n(CCCCl)c(=O)c2cc([N+](=O)[O-])ccc12	> 100 µM	> 100 µM	84500 nM	> 100 µM	34900 nM	> 100 µM	40900 nM	> 100 µM	> 100000 nM	> 100 µM	76.8 µM	> 100 µM	> 100 µM	> 100 µM			> 100000 nM	> 100 µM	> 100000 nM	> 100 µM
CCCCN1CCCC[C@@H]1C(=O)N[C@H](C(=O)N(C)[C@H](C[C@@H](OC(C)=O)c1nc(C(=O)NC2CCC(C(=O)OC)CC2)cs1)C(C)C)C(C)C (stereo partly drawn)	> 25 µM	> 25 µM	1100 nM	> 25 µM	1880 nM	> 25 µM	1360 nM	> 25 µM	1890 nM	18.2 µM	0.96 µM	13.6 µM	6.35 µM	> 25 µM	1.68 µM	> 25 µM	224 nM	0.736 µM	995 nM	11.6 µM
C[C@H]1/C(=C/C(=O)OCCN(C)C)CC[C@H]2[C@H]1C(=O)C[C@H]1C(C)(C)[C@@H](O)CC[C@]21C		> 100 µM		> 100 µM		> 100 µM		> 100 µM		> 100 µM		> 100 µM		> 100 µM		> 100 µM		> 100 µM		> 100 µM
COc1ccc(C#Cc2ccc(=O)oc2-c2cc(OC)c(OC)c(OC)c2)cc1O	21.8 µM	> 100 µM	7830 nM	> 88 µM	1020 nM	6.75 µM	12300 nM	> 100 µM	6250 nM	> 100 µM	7.98 µM	> 35.6 µM	10.1 µM	> 83.1 µM	7.08 µM	> 100 µM	234 nM	2.78 µM	1120 nM	8.43 µM
CC(=O)/C(=C/c1ccccc1)C(=O)CC(C)C	23.9 µM	50.5 µM	4310 nM	98.2 µM	16400 nM	33.6 µM	1850 nM	4.02 µM	18200 nM	41.1 µM	3.8 µM	12.8 µM	19.4 µM	38.8 µM	26.5 µM	73.8 µM	2440 nM	7.72 µM	16400 nM	30.5 µM
O=C(CCl)NCCNc1nccc(Nc2ccc(S(=O)(=O)Nc3ccccn3)cc2)n1	3.04 µM	10.3 µM	2090 nM	7.6 µM	2120 nM	6.72 µM	1750 nM	4.12 µM	2900 nM	9.98 µM	2.41 µM	6.52 µM	3.67 µM	13.1 µM	3.4 µM	13 µM	1960 nM	7.13 µM	2610 nM	7.83 µM
CCCCC(CCCCCC(CCCC)NCc1ccc2c(c1)OCO2)NCc1ccc2c(c1)OCO2 (stereo not drawn)	1.43 µM	2.88 µM	276 nM	0.805 µM	887 nM	2.22 µM	220 nM	0.581 µM	539 nM	1.83 µM	0.262 µM	0.687 µM	1.49 µM	2.83 µM	0.426 µM	1.02 µM	199 nM	0.398 µM	213 nM	0.413 µM
CC/C=C\C[C@H](F)C/C=C1/C(=O)C=C[C@@H]1C/C=C\CCCC(=O)OC	7.09 µM	16.2 µM	1390 nM	5.49 µM	1940 nM	8.58 µM	854 nM	1.75 µM	1910 nM	6.7 µM	1.69 µM	4.67 µM	9.41 µM	17.2 µM	1.99 µM	10.5 µM	1250 nM	3.37 µM	6950 nM	14.3 µM
CCCCCCCCCCCCCCCCCc1nccn1CCOCCO	5.31 µg/mL	10.4 µg/mL	3.87 µg/mL	10.9 µg/mL	6.03 µg/mL	13.2 µg/mL	5.11 µg/mL	10.4 µg/mL	4.4 µg/mL	9.29 µg/mL	4.59 µg/mL	10.1 µg/mL	4.82 µg/mL	11 µg/mL	4.88 µg/mL	10.2 µg/mL	5.85 µg/mL	11.7 µg/mL	5.04 µg/mL	10.1 µg/mL
C[C@@]1(C(=O)O)CCC[C@]2(C)C1CC[C@@]13C[C@@](O)(CC[C@]12O)[C@@]1(CO1)C3 (stereo partly drawn)	> 100 µM	> 100 µM	> 100000 nM	> 100 µM	> 100000 nM	> 100 µM	> 100000 nM	> 100 µM	> 100000 nM	> 100 µM	> 100 µM	> 100 µM	> 100 µM	> 100 µM	> 100 µM	> 100 µM	> 100000 nM	> 100 µM	> 100000 nM	> 100 µM
COc1cc(Oc2c(C)c(Cl)c(OC)c(Cl)c2OC)c2c(c1Cl)COC2=O		> 100 µM		13.1 µM		> 100 µM		> 100 µM		> 100 µM		> 100 µM		> 100 µM		> 100 µM		> 100 µM		> 100 µM
O=c1oc2ccc(I)cc2c(=O)n1-c1ccc(F)cc1F	4.43 µM	10.6 µM	1490 nM	4.83 µM	2070 nM	33.2 µM	2510 nM	10.9 µM	1890 nM	6.01 µM	3.4 µM	15.4 µM	1.19 µM	2.92 µM	2.93 µM	19.8 µM	2870 nM	9.18 µM	2440 nM	6.09 µM
CC(C)N1CCN(c2ccncc2S(=O)(=O)N2CCCCC2)CC1		> 100 µM		> 100 µM		> 100 µM		> 100 µM		> 100 µM		> 100 µM		> 100 µM		> 100 µM		> 100 µM		> 100 µM
O=C1/C=C/[C@@H](O)[C@@H]2C[C@@H](O)C[C@H]2/C=C/CCC[C@H](CCc2cccc3ccccc23)O1	0.0861 µM	0.328 µM	84.7 nM	2.73 µM	267 nM	12.1 µM	32.3 nM	0.11 µM	46.4 nM	0.119 µM	0.0347 µM	0.373 µM	0.0185 µM	0.815 µM	0.0411 µM	13.2 µM	39.4 nM	3.43 µM	22.7 nM	0.0674 µM
Oc1ccc(Nc2ccc3ccccc3c2)cc1	4.22 µM	42.3 µM	9610 nM	> 100 µM	3750 nM	18 µM	8250 nM	21.9 µM	4060 nM	27.8 µM	23 µM	65.8 µM	4.1 µM	23.2 µM	4.84 µM	27 µM	3270 nM	14 µM	24100 nM	> 100 µM
CSC(=NC#N)S/C=C/C(=O)c1ccccc1	34.5 µM	> 100 µM	12300 nM	34.7 µM			31000 nM	> 100 µM	39200 nM	> 100 µM	37.3 µM	> 100 µM	61 µM	> 100 µM	90.6 µM	> 100 µM	34700 nM	> 100 µM	31100 nM	79 µM
O=C1CSC(=S)N1c1ccco1		> 100 µM		> 100 µM		> 100 µM		> 100 µM		92.7 µM		> 100 µM		> 100 µM		> 100 µM		75.6 µM		> 100 µM
O=C(CC1(O)C(=O)N(Cc2ccccc2)c2ccc(Cl)cc21)c1ccc(C(=O)NCC2CCC3(CC2)OOC2(CCCCC2)OO3)cc1 (stereo not drawn)	0.181 µM	0.358 µM	462 nM	2.18 µM	197 nM	0.444 µM	57.3 nM	0.197 µM	327 nM	0.988 µM	0.236 µM	0.544 µM	1.77 µM	4.13 µM	0.215 µM	0.456 µM	394 nM	1.4 µM	247 nM	0.608 µM
BrC(Br)=C1C(=C(Br)Br)C(Br)C1Br (stereo not drawn)		1.93 µM		1.14 µM		5.68 µM		1.03 µM		3.63 µM		1.49 µM		3.38 µM		3 µM		2.82 µM		0.948 µM
CC(=O)O[C@H]([C@H](OC(C)=O)[C@H](C)OC(C)=O)[C@@H](/C=C/[C@@H]1CC=CC(=O)O1)OC(C)=O	> 100 µM	> 100 µM	29700 nM	99.5 µM			57100 nM	> 100 µM	> 100000 nM	> 100 µM	72.1 µM	> 100 µM	50.2 µM	> 100 µM	> 100 µM	> 100 µM	19800 nM	> 100 µM	> 100000 nM	> 100 µM
